ChEMBL document CHEMBL4800722, “Data for DCP probe BI 605906” (2021)

How the values were obtained:
[1] = molecular target: Membrane-associated tyrosine- and threonine-specific cdc2-inhibitory kinase (Homo sapiens) (UniProt Q99640); settings: Compound concentration 1.0 uM
[2] = molecular target: Serine/threonine-protein kinase SIK2 (Homo sapiens) (UniProt Q9H0K1); experiment: SNF1LK2 Invitrogen Lab (UK) kinase screen (BI); settings: Compound concentration 1.0 uM
[3] = molecular target: cAMP-dependent protein kinase catalytic subunit PRKX (Homo sapiens) (UniProt P51817); settings: Compound concentration 1.0 uM
[4] = molecular target: Receptor tyrosine-protein kinase erbB-2 (Homo sapiens) (UniProt P04626)
Chain of Receptor tyrosine-protein kinase erbB-2 (Homo sapiens) (P04626 whole entry): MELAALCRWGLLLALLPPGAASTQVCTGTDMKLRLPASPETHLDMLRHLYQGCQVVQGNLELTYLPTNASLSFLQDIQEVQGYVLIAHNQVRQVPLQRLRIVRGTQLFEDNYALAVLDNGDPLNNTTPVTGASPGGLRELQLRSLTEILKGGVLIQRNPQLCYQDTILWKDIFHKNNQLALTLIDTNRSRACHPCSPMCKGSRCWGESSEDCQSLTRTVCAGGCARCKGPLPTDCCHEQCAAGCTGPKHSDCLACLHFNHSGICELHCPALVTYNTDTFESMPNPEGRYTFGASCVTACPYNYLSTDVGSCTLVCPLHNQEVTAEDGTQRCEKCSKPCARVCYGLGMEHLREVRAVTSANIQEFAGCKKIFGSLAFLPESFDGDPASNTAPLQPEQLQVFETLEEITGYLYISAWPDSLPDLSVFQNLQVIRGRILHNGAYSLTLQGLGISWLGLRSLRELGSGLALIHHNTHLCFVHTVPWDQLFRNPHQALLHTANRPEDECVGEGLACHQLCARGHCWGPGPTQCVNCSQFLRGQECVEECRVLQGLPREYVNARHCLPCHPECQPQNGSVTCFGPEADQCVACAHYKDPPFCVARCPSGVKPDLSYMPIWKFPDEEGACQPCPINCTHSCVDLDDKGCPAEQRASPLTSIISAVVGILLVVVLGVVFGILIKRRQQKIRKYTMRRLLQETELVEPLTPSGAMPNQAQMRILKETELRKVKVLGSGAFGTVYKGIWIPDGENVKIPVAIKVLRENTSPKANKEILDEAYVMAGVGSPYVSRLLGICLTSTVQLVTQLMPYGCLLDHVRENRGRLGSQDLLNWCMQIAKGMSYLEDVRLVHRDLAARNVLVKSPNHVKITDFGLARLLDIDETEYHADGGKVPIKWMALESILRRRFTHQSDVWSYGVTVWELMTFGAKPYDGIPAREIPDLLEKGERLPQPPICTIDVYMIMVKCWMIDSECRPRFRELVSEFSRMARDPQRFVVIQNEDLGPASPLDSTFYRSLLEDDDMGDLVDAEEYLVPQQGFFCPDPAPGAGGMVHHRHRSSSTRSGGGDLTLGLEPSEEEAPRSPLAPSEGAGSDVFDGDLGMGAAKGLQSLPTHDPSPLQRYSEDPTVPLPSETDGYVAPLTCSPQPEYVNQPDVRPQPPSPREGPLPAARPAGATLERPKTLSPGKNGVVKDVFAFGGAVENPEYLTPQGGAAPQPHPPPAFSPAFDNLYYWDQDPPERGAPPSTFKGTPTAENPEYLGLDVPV

[5] = molecular target: T1, Cyclin-G-associated kinase (Homo sapiens) (UniProt O14976)
T1 sequence (whole entry): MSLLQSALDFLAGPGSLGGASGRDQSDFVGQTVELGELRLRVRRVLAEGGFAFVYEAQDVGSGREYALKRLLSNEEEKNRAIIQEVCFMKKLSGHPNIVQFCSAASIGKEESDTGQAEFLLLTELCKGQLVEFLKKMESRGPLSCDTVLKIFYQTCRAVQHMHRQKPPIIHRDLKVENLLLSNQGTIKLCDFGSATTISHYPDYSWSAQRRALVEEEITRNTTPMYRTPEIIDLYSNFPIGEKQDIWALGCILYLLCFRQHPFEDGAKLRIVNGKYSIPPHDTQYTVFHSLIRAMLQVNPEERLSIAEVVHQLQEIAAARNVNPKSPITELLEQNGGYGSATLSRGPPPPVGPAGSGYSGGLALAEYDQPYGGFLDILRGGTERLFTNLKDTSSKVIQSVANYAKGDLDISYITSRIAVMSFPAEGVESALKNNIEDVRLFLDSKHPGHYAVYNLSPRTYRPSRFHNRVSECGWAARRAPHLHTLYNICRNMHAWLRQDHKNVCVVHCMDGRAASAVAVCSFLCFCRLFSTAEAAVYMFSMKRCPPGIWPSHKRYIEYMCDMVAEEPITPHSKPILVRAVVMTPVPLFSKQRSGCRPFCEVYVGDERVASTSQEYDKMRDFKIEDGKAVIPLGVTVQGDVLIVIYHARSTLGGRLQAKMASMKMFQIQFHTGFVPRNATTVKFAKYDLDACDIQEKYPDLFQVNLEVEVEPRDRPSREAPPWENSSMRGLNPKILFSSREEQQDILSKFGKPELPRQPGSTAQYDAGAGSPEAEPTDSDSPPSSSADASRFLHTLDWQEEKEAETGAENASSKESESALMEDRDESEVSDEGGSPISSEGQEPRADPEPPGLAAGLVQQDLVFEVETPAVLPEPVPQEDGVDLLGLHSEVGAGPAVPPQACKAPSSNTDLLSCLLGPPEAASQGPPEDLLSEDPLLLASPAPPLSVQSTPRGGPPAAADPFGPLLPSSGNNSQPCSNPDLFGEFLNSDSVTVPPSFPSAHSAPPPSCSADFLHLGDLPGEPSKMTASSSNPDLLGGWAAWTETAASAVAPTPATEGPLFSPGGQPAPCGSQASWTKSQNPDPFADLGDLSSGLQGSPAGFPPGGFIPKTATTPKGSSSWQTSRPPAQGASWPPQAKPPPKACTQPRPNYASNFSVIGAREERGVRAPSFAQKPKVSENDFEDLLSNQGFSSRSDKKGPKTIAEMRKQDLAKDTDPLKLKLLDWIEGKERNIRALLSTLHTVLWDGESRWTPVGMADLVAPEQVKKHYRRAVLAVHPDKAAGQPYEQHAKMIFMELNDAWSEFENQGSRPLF

[6] = molecular target: Vascular endothelial growth factor receptor 3 (Homo sapiens) (UniProt P35916); settings: Compound concentration 1.0 uM
[7] = molecular target: Inactive tyrosine-protein kinase PEAK1 (Homo sapiens) (UniProt Q9H792); settings: Compound concentration 1.0 uM
[8] = molecular target: Serine/threonine-protein kinase PLK4 (Homo sapiens) (UniProt O00444); settings: Compound concentration 1.0 uM
[9] = molecular target: Mitogen-activated protein kinase 15 (Homo sapiens) (UniProt Q8TD08); experiment: ERK8 DUNDEE kinase screen (BI); settings: Compound concentration 10.0 uM
[10] = molecular target: Aurora kinase A (Homo sapiens) (UniProt O14965)
Chain of Aurora kinase A (Homo sapiens) (O14965 whole entry): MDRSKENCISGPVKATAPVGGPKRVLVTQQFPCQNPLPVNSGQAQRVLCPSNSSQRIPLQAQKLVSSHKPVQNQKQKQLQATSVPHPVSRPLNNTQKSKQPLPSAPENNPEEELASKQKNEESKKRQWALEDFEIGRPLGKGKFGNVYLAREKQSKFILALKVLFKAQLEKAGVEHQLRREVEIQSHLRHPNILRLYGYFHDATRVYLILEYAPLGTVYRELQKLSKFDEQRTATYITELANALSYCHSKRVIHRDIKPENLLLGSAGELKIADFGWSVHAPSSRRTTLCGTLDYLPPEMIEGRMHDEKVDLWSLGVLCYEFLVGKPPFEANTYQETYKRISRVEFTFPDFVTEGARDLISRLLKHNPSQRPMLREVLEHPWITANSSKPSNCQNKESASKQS

[11] = molecular target: Serine/threonine-protein kinase Nek4 (Homo sapiens) (UniProt P51957); settings: Compound concentration 1.0 uM
[12] = molecular target: Voltage-dependent L-type calcium channel subunit alpha-1C (CA+/PAASITE) (Rattus norvegicus, UniProt P22002); experiment: CA+/PAASITE Eurofins SafetyScreen44 (BI); settings: read-out: % Ctrl
Chain of Voltage-dependent L-type calcium channel subunit alpha-1C (CA+/PAASITE) (P22002 whole entry): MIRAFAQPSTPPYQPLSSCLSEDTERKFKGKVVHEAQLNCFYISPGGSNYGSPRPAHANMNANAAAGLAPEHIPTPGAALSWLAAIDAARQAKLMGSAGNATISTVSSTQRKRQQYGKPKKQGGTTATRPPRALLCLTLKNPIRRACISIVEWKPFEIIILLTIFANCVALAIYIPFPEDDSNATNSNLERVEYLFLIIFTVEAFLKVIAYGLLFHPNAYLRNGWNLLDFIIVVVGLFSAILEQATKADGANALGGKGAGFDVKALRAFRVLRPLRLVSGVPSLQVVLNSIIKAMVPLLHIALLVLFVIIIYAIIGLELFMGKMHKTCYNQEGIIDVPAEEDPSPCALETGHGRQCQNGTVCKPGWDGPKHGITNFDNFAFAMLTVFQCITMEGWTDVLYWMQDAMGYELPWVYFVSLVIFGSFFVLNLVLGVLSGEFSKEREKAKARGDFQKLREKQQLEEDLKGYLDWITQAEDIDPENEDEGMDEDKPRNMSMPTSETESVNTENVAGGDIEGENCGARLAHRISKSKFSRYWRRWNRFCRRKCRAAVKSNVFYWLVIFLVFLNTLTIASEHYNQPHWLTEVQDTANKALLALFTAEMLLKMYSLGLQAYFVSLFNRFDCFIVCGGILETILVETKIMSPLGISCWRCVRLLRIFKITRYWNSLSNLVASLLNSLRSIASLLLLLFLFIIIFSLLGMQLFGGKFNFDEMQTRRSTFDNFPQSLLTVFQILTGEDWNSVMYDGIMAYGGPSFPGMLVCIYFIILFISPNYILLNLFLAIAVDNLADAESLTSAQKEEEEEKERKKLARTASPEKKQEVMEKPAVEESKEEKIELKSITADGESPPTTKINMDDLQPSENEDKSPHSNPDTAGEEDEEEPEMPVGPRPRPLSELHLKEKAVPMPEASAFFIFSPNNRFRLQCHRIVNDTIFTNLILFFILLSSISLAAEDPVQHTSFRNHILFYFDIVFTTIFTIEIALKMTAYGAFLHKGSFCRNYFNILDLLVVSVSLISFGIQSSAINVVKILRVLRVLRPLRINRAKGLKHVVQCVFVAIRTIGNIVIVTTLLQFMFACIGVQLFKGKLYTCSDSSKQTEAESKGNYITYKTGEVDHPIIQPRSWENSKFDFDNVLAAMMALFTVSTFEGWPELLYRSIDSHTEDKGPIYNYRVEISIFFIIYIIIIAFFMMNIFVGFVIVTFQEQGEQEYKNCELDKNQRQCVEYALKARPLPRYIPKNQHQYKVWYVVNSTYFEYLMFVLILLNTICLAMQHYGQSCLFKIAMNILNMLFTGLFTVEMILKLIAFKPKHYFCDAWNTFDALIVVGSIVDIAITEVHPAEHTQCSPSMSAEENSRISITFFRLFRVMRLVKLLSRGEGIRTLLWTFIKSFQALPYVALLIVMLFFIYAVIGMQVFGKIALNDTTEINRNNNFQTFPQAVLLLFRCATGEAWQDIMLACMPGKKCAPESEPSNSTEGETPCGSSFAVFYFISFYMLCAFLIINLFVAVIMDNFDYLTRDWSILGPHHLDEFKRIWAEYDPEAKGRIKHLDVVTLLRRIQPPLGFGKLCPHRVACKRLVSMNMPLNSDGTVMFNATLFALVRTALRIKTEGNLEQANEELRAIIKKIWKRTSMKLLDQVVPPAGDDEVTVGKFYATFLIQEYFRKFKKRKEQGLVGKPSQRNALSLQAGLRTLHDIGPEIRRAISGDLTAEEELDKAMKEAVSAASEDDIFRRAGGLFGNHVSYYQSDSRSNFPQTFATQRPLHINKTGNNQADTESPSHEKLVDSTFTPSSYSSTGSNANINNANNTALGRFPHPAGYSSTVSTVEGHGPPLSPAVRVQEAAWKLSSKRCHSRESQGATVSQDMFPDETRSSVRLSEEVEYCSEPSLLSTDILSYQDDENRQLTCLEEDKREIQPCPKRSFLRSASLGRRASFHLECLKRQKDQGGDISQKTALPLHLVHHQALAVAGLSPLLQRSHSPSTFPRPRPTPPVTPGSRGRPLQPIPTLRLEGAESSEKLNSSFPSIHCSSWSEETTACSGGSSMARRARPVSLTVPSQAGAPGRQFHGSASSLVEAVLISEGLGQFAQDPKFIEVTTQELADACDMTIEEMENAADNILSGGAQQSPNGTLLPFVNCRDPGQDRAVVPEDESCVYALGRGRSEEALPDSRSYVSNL

[13] = molecular target: Phosphodiesterase 4 (Homo sapiens) (UniProt P27815+Q08499+Q07343+Q08493); experiment: PDE-IV/HU Eurofins SafetyScreen44 (BI); type: protein assay; settings: Compound concentration 10.0 uM
[14] = molecular target: SRSF protein kinase 2 (Homo sapiens) (UniProt P78362); experiment: SRPK2 Invitrogen Lab (UK) kinase screen (BI); settings: Compound concentration 1.0 uM
[15] = molecular target: Protein-tyrosine kinase 2-beta (Homo sapiens) (UniProt Q14289)
Chain of Protein-tyrosine kinase 2-beta (Homo sapiens) (Q14289 whole entry, looked up): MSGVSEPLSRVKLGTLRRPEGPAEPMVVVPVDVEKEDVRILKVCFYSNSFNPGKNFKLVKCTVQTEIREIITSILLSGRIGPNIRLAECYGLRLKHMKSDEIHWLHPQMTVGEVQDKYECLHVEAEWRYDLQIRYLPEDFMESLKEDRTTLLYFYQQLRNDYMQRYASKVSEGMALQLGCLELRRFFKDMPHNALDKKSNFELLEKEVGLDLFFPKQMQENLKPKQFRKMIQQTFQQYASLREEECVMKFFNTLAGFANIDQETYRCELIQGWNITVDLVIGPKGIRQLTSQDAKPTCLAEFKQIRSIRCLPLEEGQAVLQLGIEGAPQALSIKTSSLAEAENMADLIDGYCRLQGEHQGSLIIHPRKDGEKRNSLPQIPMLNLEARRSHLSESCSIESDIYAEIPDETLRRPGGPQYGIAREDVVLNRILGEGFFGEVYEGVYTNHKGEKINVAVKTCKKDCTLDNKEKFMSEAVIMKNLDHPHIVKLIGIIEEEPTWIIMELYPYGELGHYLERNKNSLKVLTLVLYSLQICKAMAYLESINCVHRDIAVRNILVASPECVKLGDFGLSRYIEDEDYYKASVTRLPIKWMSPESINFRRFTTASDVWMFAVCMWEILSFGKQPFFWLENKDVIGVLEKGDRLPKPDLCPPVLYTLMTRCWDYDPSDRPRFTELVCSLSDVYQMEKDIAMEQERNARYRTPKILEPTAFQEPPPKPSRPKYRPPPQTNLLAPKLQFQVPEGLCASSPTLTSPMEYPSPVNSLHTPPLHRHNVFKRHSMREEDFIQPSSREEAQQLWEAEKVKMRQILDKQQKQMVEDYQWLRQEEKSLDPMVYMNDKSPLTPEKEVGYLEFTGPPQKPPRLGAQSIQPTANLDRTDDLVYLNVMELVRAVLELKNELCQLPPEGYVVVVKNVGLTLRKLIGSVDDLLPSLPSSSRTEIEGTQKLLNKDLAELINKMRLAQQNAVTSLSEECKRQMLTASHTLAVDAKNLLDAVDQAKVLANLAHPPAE

[16] = molecular target: MAP kinase-interacting serine/threonine-protein kinase 1 (Homo sapiens) (UniProt Q9BUB5); experiment: MNK1 DUNDEE kinase screen (BI); settings: Compound concentration 10.0 uM
[17] = molecular target: Phosphodiesterase 3 (Homo sapiens) (UniProt Q14432+Q13370); experiment: PDE-III/HU Eurofins SafetyScreen44 (BI); type: protein assay; settings: Compound concentration 10.0 uM
[18] = molecular target: Serine/threonine-protein kinase NIM1 (Homo sapiens) (UniProt Q8IY84); settings: Compound concentration 1.0 uM
[19] = molecular target: Phosphatidylinositol 5-phosphate 4-kinase type-2 alpha (Homo sapiens) (UniProt P48426); experiment: PIP4K2A Invitrogen Lab (UK) kinase screen (BI); settings: Compound concentration 1.0 uM
[20] = molecular target: Serine/threonine-protein kinase Sgk3 (Homo sapiens) (UniProt Q96BR1); settings: Compound concentration 1.0 uM
[21] = molecular target: Serine/threonine-protein kinase B-raf (Homo sapiens) (UniProt P15056); experiment: BRAF Invitrogen Lab (UK) kinase screen (BI); settings: Compound concentration 1.0 uM
[22] = molecular target: Serine/threonine-protein kinase 32B (Homo sapiens) (UniProt Q9NY57); settings: Compound concentration 1.0 uM
[23] = molecular target: Epithelial discoidin domain-containing receptor 1 (Homo sapiens) (UniProt Q08345); experiment: DDR1 Invitrogen Lab (UK) kinase screen (BI); settings: Compound concentration 1.0 uM
[24] = molecular target: Serine/threonine-protein kinase Nek2 (Homo sapiens) (UniProt P51955); settings: Compound concentration 1.0 uM
[25] = molecular target: Alpha-2B adrenergic receptor (Homo sapiens) (UniProt P18089); settings: Compound concentration 10.0 uM

`CCC(F)(F)c1cc(N2CCC(S(C)(=O)=O)CC2)nc2sc(C(N)=O)c(N)c12` [BI-605906] showed a residual activity [1] of 90%, a residual activity [2] of 84% and a residual activity [3] of 96%. For the same molecule, the residual activity ([4]; Compound concentration 1.0 uM) was 96%, the residual activity ([4]; Compound concentration 10.0 uM) was 86% and the residual activity ([5]; Compound concentration 0.001 uM) was 99%. It also gave a residual activity ([5]; Compound concentration 1.0 uM) of 7%, a residual activity ([5]; Compound concentration 20.0 uM) of 6% and a residual activity [6] of 97%. For the same molecule, the residual activity [7] was 94%, the residual activity [8] was 89% and the residual activity [9] was 63.2%. The residual activity ([10]; Compound concentration 1.0 uM) was 93%, the residual activity ([10]; Compound concentration 10.0 uM) was 38% and the residual activity [11] was 89%. The activity at 10 µM ([12]; compound concentration 10 uM) was 99% (not active), the activity at 100 µM ([12]; compound concentration 100 uM) was 70% (not active) and the residual activity [13] was 68%. The residual activity [14] was 103%, the residual activity ([15]; Compound concentration 1.0 uM) was 91% and the residual activity ([15]; Compound concentration 10.0 uM) was 70%. For the same molecule, the residual activity [16] was 93.8%, the residual activity [17] was 31% and the residual activity [18] was 93%. The residual activity [19] was 115%, the residual activity [20] was 96% and the residual activity [21] was 72%. It also gave a residual activity [22] of 96%, a residual activity [23] of 84% and a residual activity [24] of 93%. The inhibition [25] was 9.66%.
